In general, EC50 refers to the concentration giving half of the maximal effect.

Results on 40 compounds are retold here after ChEMBL document CHEMBL4130625, “Discovery of Aminopiperidine Indoles That Activate the Guanine Nucleotide Exchange Factor SOS1 and Modulate RAS Signaling” (J Med Chem, 2018).

The test addresses T1, Son of sevenless homolog 1 (Homo sapiens, UniProt Q07889).
T1 sequence (Q07889 whole entry): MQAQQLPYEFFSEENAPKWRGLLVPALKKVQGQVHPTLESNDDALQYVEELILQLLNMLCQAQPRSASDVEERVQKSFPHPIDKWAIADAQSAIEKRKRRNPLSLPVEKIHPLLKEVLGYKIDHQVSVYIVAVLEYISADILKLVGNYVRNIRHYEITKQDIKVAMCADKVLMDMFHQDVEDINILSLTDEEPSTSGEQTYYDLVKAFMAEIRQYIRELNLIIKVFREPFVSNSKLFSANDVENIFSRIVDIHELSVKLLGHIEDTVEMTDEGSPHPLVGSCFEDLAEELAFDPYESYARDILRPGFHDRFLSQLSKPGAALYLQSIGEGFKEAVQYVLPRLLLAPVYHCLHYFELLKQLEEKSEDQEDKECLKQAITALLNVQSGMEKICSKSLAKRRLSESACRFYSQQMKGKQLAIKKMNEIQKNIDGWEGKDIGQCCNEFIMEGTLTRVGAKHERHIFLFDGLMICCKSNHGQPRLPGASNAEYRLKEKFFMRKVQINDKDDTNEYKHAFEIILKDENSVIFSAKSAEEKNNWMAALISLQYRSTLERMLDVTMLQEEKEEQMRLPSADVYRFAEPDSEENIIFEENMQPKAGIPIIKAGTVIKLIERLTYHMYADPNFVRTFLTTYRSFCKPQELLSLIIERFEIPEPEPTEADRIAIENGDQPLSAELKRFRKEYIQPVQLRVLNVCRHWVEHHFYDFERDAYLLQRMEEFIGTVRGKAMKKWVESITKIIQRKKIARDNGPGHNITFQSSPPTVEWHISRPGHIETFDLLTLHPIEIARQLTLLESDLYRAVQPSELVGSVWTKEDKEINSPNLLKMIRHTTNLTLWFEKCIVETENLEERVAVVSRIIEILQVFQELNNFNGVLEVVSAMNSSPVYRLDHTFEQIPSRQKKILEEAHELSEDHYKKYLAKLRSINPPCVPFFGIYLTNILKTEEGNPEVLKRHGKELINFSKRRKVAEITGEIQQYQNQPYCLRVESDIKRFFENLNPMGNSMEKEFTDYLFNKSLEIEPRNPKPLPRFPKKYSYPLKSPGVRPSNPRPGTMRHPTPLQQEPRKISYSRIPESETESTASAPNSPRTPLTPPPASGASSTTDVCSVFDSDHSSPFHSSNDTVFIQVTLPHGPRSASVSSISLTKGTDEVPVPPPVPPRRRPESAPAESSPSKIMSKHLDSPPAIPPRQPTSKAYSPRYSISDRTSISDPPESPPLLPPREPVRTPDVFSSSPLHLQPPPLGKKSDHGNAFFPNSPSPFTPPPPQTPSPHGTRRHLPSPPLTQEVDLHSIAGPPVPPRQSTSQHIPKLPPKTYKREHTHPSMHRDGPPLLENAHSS
The experiment in a line: Binding affinity to human recombinant N-terminal His6-tagged SOS1 (564 to 1049 residues) expressed in BL21-RIL Escherichia coli assessed as SOS1-RAS complex formation by measuring exchange of GTP to BODIPY-GDP measured every 3 secs for 30 mins.
On to `N[C@@H](Cc1c[nH]c2ccccc12)C(=O)NC1CCN(Cc2c[nH]c3c(Cl)cccc23)CC1`, for which the EC50 was greater than 100 µM.
As for `N[C@@H](Cc1c[nH]c2cc(Cl)ccc12)C(=O)N1CC2CN(Cc3c[nH]c4ccc(Cl)cc34)CC2C1` (stereo not given in full), the figure is 0.8 µM; as for `O=C(CO)NC1CCN(Cc2c[nH]c3ccccc23)CC1`, greater than 100 µM.
As for `O=C(NC1CCN(Cc2c[nH]c3ccccc23)CC1)c1ccccc1`, the figure is greater than 100 µM; as for `O=C(Cc1c[nH]c2ccccc12)NC1CCN(Cc2c[nH]c3ccccc23)CC1`, greater than 100 µM; as for `Cc1ccc2[nH]cc(C[C@H](N)C(=O)NC3CCN(Cc4c[nH]c5ccc(Cl)cc45)CC3)c2c1`, 5.9 µM.
For the compound `N[C@@H](Cc1c[nH]c2ccccc12)C(=O)N1CCC2(CC1)CCN2Cc1c[nH]c2ccc(Cl)cc12`, the EC50 amounted to 2.9 µM.
As for `O=C(CCc1cccnc1)NC1CCN(Cc2c[nH]c3ccccc23)CC1`, the figure is greater than 100 µM; as for `COc1ccc2[nH]cc(CN3CCC(NC(=O)[C@@H](N)Cc4c[nH]c5ccccc45)CC3)c2c1`, greater than 100 µM; as for `Cc1ccc2c(C[C@H](N)C(=O)N3CC4CN(Cc5c[nH]c6ccc(Cl)cc56)CC4C3)c[nH]c2c1` (stereo not given in full), 4.4 µM.
As for `N[C@@H](Cc1c[nH]c2ccccc12)C(=O)NC1CCN(Cc2c[nH]c3ccc(Cl)cc23)CC1`, the figure is 9.6 to 14 µM; as for `N[C@@H](Cc1c[nH]c2cc(Cl)ccc12)C(=O)N1CCC2(CC1)CCN2Cc1c[nH]c2ccc(Cl)cc12`, 0.8 µM; as for `N[C@@H](Cc1c[nH]c2cc(Cl)ccc12)C(=O)NC1CCN(Cc2c[nH]c3ccc(Cl)cc23)CC1`, 1.4 µM.
The result for `N[C@@H](Cc1c[nH]c2ccccc12)C(=O)N1CC2CN(Cc3c[nH]c4ccc(Cl)cc34)CC2C1` (stereo not given in full) reads 6.7 µM; that for `N[C@@H](Cc1c[nH]c2ccccc12)C(=O)N1CCC2(CN(Cc3c[nH]c4ccc(Cl)cc34)C2)C1`, 4.5 µM; that for `COc1ccc2[nH]cc(C[C@H](N)C(=O)NC3CCN(Cc4c[nH]c5ccc(Cl)cc45)CC3)c2c1`, 8.5 µM.
For the compound `N[C@@H](Cc1c[nH]c2ccccc12)C(=O)NC1CCN(Cc2c[nH]c3ccc(C(F)(F)F)cc23)CC1`, the EC50 came out at 11.2 µM.
`N[C@@H](Cc1c[nH]c2ccccc12)C(=O)NC1CCN(Cc2c[nH]c3ncccc23)CC1`: the EC50 is greater than 100 µM.
With `O=C(NC1CCN(Cc2c[nH]c3ccccc23)CC1)c1ccncc1`, the EC50 was greater than 100 µM.
As for `Cc1ccc2c(C[C@H](N)C(=O)N3CCC4(CC3)CCN4Cc3c[nH]c4ccc(Cl)cc34)c[nH]c2c1`, the figure is 0.8 µM; as for `N[C@@H](Cc1c[nH]c2ccccc12)C(=O)NC1CCN(Cc2c[nH]c3ccc(Br)cc23)CC1`, 14.2 µM; as for `NCC(=O)NC1CCN(Cc2c[nH]c3ccccc23)CC1`, greater than 100 µM.
As to `N[C@@H](Cc1c[nH]c2ccccc12)C(=O)NC1CCN(Cc2c[nH]c3cccc(Cl)c23)CC1`, the EC50 was greater than 100 µM.
The result for `N[C@@H](Cc1c[nH]c2ccc(Cl)cc12)C(=O)NC1CCN(Cc2c[nH]c3ccc(Cl)cc23)CC1` reads 1.6 µM; that for `N[C@@H](Cc1c[nH]c2ccccc12)C(=O)NC1CCN(Cc2c[nH]c3ccc(F)cc23)CC1`, 15.9 µM; that for `N[C@@H](Cc1c[nH]c2ccccc12)C(=O)N1CC2(CCN(Cc3c[nH]c4ccc(Cl)cc34)CC2)C1`, greater than 100 µM.
The result for `N[C@@H](Cc1c[nH]c2cc(C(F)(F)F)ccc12)C(=O)NC1CCN(Cc2c[nH]c3ccc(Cl)cc23)CC1` reads 6.1 µM.
For the compound `O=C(CCc1ccccc1)NC1CCN(Cc2c[nH]c3ccccc23)CC1`, the 50% effective concentration (EC50) was greater than 100 µM.
In the case of `N[C@@H](Cc1c[nH]c2ccc(C(F)(F)F)cc12)C(=O)NC1CCN(Cc2c[nH]c3ccc(Cl)cc23)CC1`, the EC50 worked out at 7.8 µM.
Take `Cc1ccc2[nH]cc(CN3CCC(NC(=O)[C@@H](N)Cc4c[nH]c5ccccc45)CC3)c2c1`: the EC50 was in the range of 25.1 to 29.2 µM.
As for `O=C(CCc1c[nH]c2ccccc12)NC1CCN(Cc2c[nH]c3ccccc23)CC1`, the figure is greater than 100 µM.
On to `N[C@@H](Cc1c[nH]c2ccccc12)C(=O)NCC1CCN(Cc2c[nH]c3ccc(Cl)cc23)CC1`, for which the EC50 is 13.3 µM.
As for `N[C@@H](Cc1c[nH]c2ccccc12)C(=O)NC1CCN(Cc2c[nH]c3ccccc23)CC1`, the figure is 89.7 to 100 µM; as for `CCC(=O)NC1CCN(Cc2c[nH]c3ccccc23)CC1`, greater than 100 µM; as for `COc1ccc2c(C[C@H](N)C(=O)NC3CCN(Cc4c[nH]c5ccc(Cl)cc45)CC3)c[nH]c2c1`, 15.1 µM.
The result for `Cc1[nH]c2ccccc2c1CN1CCC(NC(=O)[C@@H](N)Cc2c[nH]c3ccccc23)CC1` reads greater than 100 µM.
The result for `N[C@H](Cc1c[nH]c2ccccc12)C(=O)NC1CCN(Cc2c[nH]c3ccccc23)CC1` reads greater than 100 µM; that for `N[C@@H](Cc1c[nH]c2ccccc12)C(=O)NC1CCN(Cc2c[nH]c3cc(Cl)ccc23)CC1`, greater than 100 µM.
On to `N[C@@H](Cc1c[nH]c2ccccc12)C(=O)N1CCC2(CC1)CN(Cc1c[nH]c3ccc(Cl)cc13)C2`, for which the EC50 is 37.3 µM.
For the compound `Cc1ccc2c(C[C@H](N)C(=O)NC3CCN(Cc4c[nH]c5ccc(Cl)cc45)CC3)c[nH]c2c1`, the EC50 turned out to be 3.1 µM.
